# Measured values reported in patent EP1591123A1, “USES OF NARINGENIN, NARINGIN AND SALTS THEREOF AS EXPECTORANTS IN THE TREATMENT OF COUGH, AND COMPOSITIONS THEREOF” (Su, Wei-wei, priority 2003, dated 2004).
# Counter-ions that a name gives are not always drawn.
# Legend:
# NIH mice = test: Antitussive test of Naringin, spraying with concentrated ammonia liquor (Example 28); assay type: in vivo; details: 0.2 ml/20g of 1.5 mg/ml
# From the text: 1.Animals: As the stock animals, totally 130 NIH mice, male, each weighed 18.2~21.7g within ordinary standard. Weigh and number each mice accurately first, then pick out the 120 healthy ones who weighed in range from 18.5~21.0g. Ranked in weigh, they were divided into 8 groups in random with each 15. Set up reference groups of negative and positive, and sample groups of high-dose, mid-dose, low-dose Naringin and sodium Naringinate.
# • 1) Blank control group: physiological saline, 0.9% NaCl; • 2) Positive control group: 30 mg dextromethorphan hydrobromide was weighed into a 20ml volumetric flask, and physiological saline was accurately added to the volume to obtain the solution for positive control at concentration of 5mg/ml° • 3) Group of low-dose sample Naringin: Proper amount of Naringin was weighed into a suitable volumetric flask, and physiological saline was added to the volume to obtain the solution at concentration of 0.5mg/ml. • 4) Group of mid-dose sample Naringin: Proper amount of Naringin was weighed into a suitable volumetric flask, and physiological saline was added to the volume to obtain the solution at concentration of 1.5mg/ml. • 5) Group of high-dose sample Naringin: Proper amount of Naringin was weighed into a suitable volumetric flask, and physiological saline was added to the volume to obtain the solution at concentration of 4.5mg/ml. • 6) Group of low-dose sample sodium Naringinate: Proper amount of sodium Naringin was weighed into a suitable volumetric flask, and physiological saline was added to the volume to obtain the solution at concentration of 0.5mg/ml. • 7) Group of mid-dose sample sodium Naringinate: Proper amount of sodium Naringin was weighed into a suitable volumetric flask, and physiological saline was added to the volume to obtain the solution at concentration of 1.5mg/ml. • 8) Group of high-dose sample sodium Naringinate: Proper amount of sodium Naringin was weighed into a suitable volumetric flask, and physiological saline was added to the volume to obtain the solution at concentration of4.5mg/ml.
# One hour after intra-gastrointestinal administering for the mice, spray with concentrated ammonia liquor for certain intervals. Immediately the spraying was over, put away the mice outside and observe the tussive action. Mark down the times for which they coughed within 1 minute. Only when they coughed, which was characteristic of compression of abdomen or chest with their mouths open, and making coughing noise, for more than 3 times within a minute, tussive action could be admitted.
# Calculate the median effective dose(EDT50) with sequential trials. Work out the amount of R with the formula below. If R is greater than 130%, it means the drug will be effective on antitussive action. If R is greater than 150%, it means the drug will be remarkably effective on antitussive action. The formula is shown as below: R =(EDT50 of the treatmnet)/(EDT50 of the control)× 100% [formula] EDT50=log-1c/n(n for amount of animals, c for summation of rx, r for amount of animals in each group, x for logarithm of the dose (time for spraying) )
# mice = test: Antitussive test of Naringenin, spray by high concentration ammonia (Example 30); assay type: in vivo; details: sample concentration 1.5 mg/ml
# From the text: 1. Animal: 120 healthy male mice weighing 19.5-22.1g was grouped into 8 groups random after labeled, which was selected from 130 male mice weighing 19.3-22.6g. Every group was 15 mice. Eight group were set including negative control group, positive control group, high dose group of Naringenin, middle dose group of Naringenin, low dose group of Naringenin, high dose group of sodium salt of Naringenin, middle dose group of sodium salt of Naringenin, low dose group of sodium salt of Naringenin.
# • 1) Blank control group: physiological saline, 0.9% NaCl; • 2) Positive control group: 30mg Dextromethorphan Hydrobromide was dissolve into 20 ml physiological saline and the sample concentration was 1.5 mg/ml to obtain the solution for positive control. • 3) low dose group of Naringenin: weighting out the appropriate amount of Naringenin and dissolving it in physiological saline, then the sample concentration was 0.5 mg/ml. • 4) middle dose group of Naringenin: weighting out the appropriate amount of Naringenin and dissolving it in physiological saline, then the sample concentration was 1.5mg/ml. • 5) high dose group of Naringenin: weighting out the appropriate amount of Naringenin and dissolving it in physiological saline, then the sample concentration was 4.5 mg/ml. • 6) low dose group of sodium salt of Naringenin: weighting out the appropriate amount of sodium salt of Naringenin and dissolving it in physiological saline, then the sample concentration was 0.5 mg/ml. • 7) middle dose group of sodium salt of Naringenin: weighting out the appropriate amount of sodium salt of Naringenin and dissolving it in physiological saline, then the sample concentration was 1.5 mg/ml. • 8) high dose group of sodium salt of Naringenin: weighting out the appropriate amount of sodium salt of Naringenin and dissolving it in physiological saline, then the sample concentration was 4.5 mg/ml.
# Animals were oral administered, and were sprayed one hour later. After the spray took out the animals and observed the tussive action. Observed the time of tussis in one minutes, if it appeared typical tussis three times in one minutes(shrinking the abdomen muscle or shrinking chest, puffing mouth at the same time, sometimes appearing tussive sound), we consider it "appearing tussis", otherwise "no tussis".
# We calculated the spraying time that half of mice were tusisive by sequential method. And calculated the R, the drug was provided with effect of relieve a cough if R>130%. The drug was provided with remarkable effect of relieve a cough if R>150%. Underside is expressions: R=(EDT50 of the treatment)/(EDT50 of the control)× 100% [formula] EDT50=log^-1c/n ('n' is the number of animal, 'c' is the sum of 'rx' value, 'r' is the number of animal in every group, 'x' is the logarithm of dose(namely spray time).)
# [1] = EDT50 of the treatment / EDT50 of the control x 100%
smiles,measurement,setting,value
"COc1ccc2c(c1)[C@]13CCCC[C@@H]1[C@H](C2)N(C)CC3 [Dextromethorphan Hydrobromide, reference compound]",Effect of relieving cough,NIH mice,"effective (If R is greater than 130%, it means the drug will be effective on antitussive action)"
same,R Value,NIH mice; [1],140.23%
same,EDT50,"NIH mice; mice, intra-gastrointestinal, ammonia spray 1 hour after dosing",56.82 s
same,R Value,mice; [1],138.05%
same,EDT50,"mice; mice, oral, dose 0.2 (mg/20g), spray one hour later",53.70 s
same,Effect of relieving cough,mice,effect (the drug was provided with effect of relieve a cough if R>130%)
